How the values were obtained:
sourgrass = assay: Test D sourgrass; assay type: in vivo, Trichachne insularis; conditions: Preemergence, 0 to 100 scale
From the text: Seeds, tubers, or plant parts of Alexandergrass (Brachiaria plantaginea), bermuda-grass (Cynodon dactylon), common pursiane (Portulaca oleracea), common ragweed (Ambrosia elatior), common groundsel (Senecio vulgaris), dallisgrass (Paspalum dilatatum), goosegrass (Eleusine indica), guineagrass (Panicum maximum), itchgrass (Rottboellia exaltata), Johnson grass (Sorghum halepense), large crabgrass (Digitaria sanguinalis), pitted morningglory (Ipomoea lacunosa), purple nutsedge (Cyperus rotundus), sandbur (Cenchrus echinatus), sourgrass (Trichachne insularis), Spanishneedles (Bidens bipinnata), surinam grass (Brachiaria decumbens) and tall mallow (Malva sylvestris) were planted into greenhouse pots of flats containing greenhouse planting medium. Plant species were grown in separate pots or individual compartments. Preemergence applications were made within one day of planting the seed or plant part.
Test chemicals were formulated in a non-phytotoxic solvent mixture which included a surfactant and applied preemergence to the surface of the pot containing seeds in a sandy loam soil. Untreated control pots and treated pots were placed in the greenhouse for growth and visually evaluated for injury 14 to 21 days after herbicide application. Plant response ratings, summarized in Table C, are based on a 0 to 100 scale where 0 is no injury and 100 is complete control. A dash (−) response means no test result.

large crabgrass = assay: Test C postemergence large crabgrass; assay type: in vivo, Digitaria sanguinalis; conditions: 0 to 100 scale, 0 no effect, 100 complete control
Method in brief: (§1)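 Compounds in a non-phytotoxic solvent with surfactant were sprayed postemergence on greenhouse-grown plants in 60:40 sandy loam/potting mix. After about 14 to 21 days, visual ratings against untreated controls on a 0 (no effect) to 100 (complete control) scale.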

cotton = assay: Test C postemergence cotton; assay type: in vivo, Gossypium hirsutum; conditions: 0 to 100 scale, 0 no effect, 100 complete control
Method in brief: as §1

sunflower = assay: Test E sunflower; assay type: in vivo, Helianthus annuus; conditions: Preemergence
Italian ryegrass = assay: Test E Italian ryegrass; assay type: in vivo, Lolium multiflorum; conditions: Postemergence; for Plant response rating, I. Ryegrass: 0 to 100 scale
Method in brief: (§2)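 Compound formulated with surfactant in a non-phytotoxic solvent (postemergence: young 1- to 4-leaf plants); held in greenhouse approx. 21–28 days; visual assessment against untreated plants.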

wild mustard = assay: Test E wild mustard; assay type: in vivo, Sinapis arvensis; conditions: Postemergence; for Plant response rating, Wild mustard: 0 to 100 scale
Procedure: […] A mixture of sandy loam soil and greenhouse potting mix in a 60:40 ratio was used for the postemergence test.
(§3) Plantings of these crops and weed species were adjusted to produce plants of appropriate size for the postemergence test. All plant species were grown using normal greenhouse practices. Crop and weed species include annual bluegrass (Poa annua), blackgrass (Alopecurus myosuroides), black nightshade (Solanum nigra), chickweed (Stellaria media), common poppy (Papaver rhoeas), deadnettle (Lamium amplexicaule), downy brome (Bromus tectorum), field violet (Viola arvensis), galium (Galium aparine), green foxtail (Setaria viridis), Italian ryegrass (Lolium multiflorum), jointed goatgrass (Aegilops cylindrica), kochia (Kochia scoparia), lambsquarters (Chenopodium album), littleseed canarygrass (Phalaris minor), rape (Brassica napus), redroot pigweed (Amaranthus retroflexus), Russian thistle (Salsola kali), scentless chamomile (Matricaria inodora), spring barley (Hordeum vulgare), sugar beet (Beta vulgaris), sunflower (Helianthus annuus), ivyleaf speedwell (Veronica hederaefolia), spring wheat (Triticum aestivum), winter wheat (Triticum aestivum), wild buckwheat (Polygonum convolvulus), wild mustard (Sinapis arvensis), wild oat (Avena fatua), windgrass (Apera spica-venti) and winter barley (Hordeum vulgare).
(§4) Treated plants and untreated controls were maintained in a greenhouse for approximately 21 to 28 days, after which all treated plants were compared to untreated controls and visually evaluated. […] A dash response (-) means no test result.

jointed goatgrass = assay: Test E jointed goatgrass; assay type: in vivo, Aegilops cylindrica; conditions: Preemergence
littleseed canarygrass [1] = assay: Test E littleseed canarygrass; assay type: in vivo, Phalaris minor; conditions: Preemergence
spring wheat = assay: Test E spring wheat; assay type: in vivo, Triticum aestivum; conditions: Postemergence; for Plant response rating, Spring Wheat: 0 to 100 scale
Procedure: Compounds evaluated in this test were formulated in a non-phytotoxic solvent mixture which included a surfactant and applied to plants that were in the 1- to 4-leaf stage (postemergence application). A mixture of sandy loam soil and greenhouse potting mix in a 60:40 ratio was used for the postemergence test.
as §3, §4

littleseed canarygrass [2] = assay: Test E littleseed canarygrass; assay type: in vivo, Phalaris minor; conditions: Postemergence; for Plant response rating, LS canarygrass: 0 to 100 scale
Method in brief: as §2

itchgrass = assay: Test D itchgrass; assay type: in vivo, Rottboellia exaltata; conditions: Postemergence, 0 to 100 scale
chickweed = assay: Test E chickweed; assay type: in vivo, Stellaria media; conditions: Preemergence
deadnettle = assay: Test E deadnettle; assay type: in vivo, Lamium amplexicaule; conditions: Postemergence, 0 to 100 scale
Method in brief: as §2

ladysthumb smartweed = assay: Test C postemergence ladysthumb smartweed; assay type: in vivo, Polygonum persicaria; conditions: 0 to 100 scale, 0 no effect, 100 complete control
Method in brief: as §1

goosegrass = assay: Test D goosegrass; assay type: in vivo, Eleusine indica; conditions: Postemergence, 0 to 100 scale
black nightshade = assay: Test E black nightshade; assay type: in vivo, Solanum nigra; conditions: Postemergence; for Plant response rating, Blk nightshade: 0 to 100 scale
Method in brief: as §2

[3] = Rate 64 g/ha, 0 no injury, 100 complete control
[4] = Rate 125 g/ha, 0 no injury, 100 complete control
[5] = Rate 125 g/ha, 0 to 100 scale (0 no effect, 100 complete control)
[6] = Rate 500 g/ha, 0 to 100 scale where 0 is no effect and 100 is complete control
[7] = Rate 500 g/ha, 0 no effect, 100 complete control
[8] = Rate 250 g/ha, 0 to 100 scale where 0 is no effect and 100 is complete control

**Q.** For Cc1ccc(N(C(=O)n2oc(=O)n(C(C)C)c2=O)C(C)C)cc1 [Compound 132], which “Plant response rating, Sourgrass” value (sourgrass; [3]) is on record?
**A.** 100

**Q.** And the “Plant response rating Large crabgrass” value (large crabgrass; Rate 140 g/ha)?
**A.** 0

**Q.** What about the “Plant response rating Large crabgrass” value (large crabgrass; Rate 280 g/ha) of the same compound?
**A.** 10

**Q.** What about the “Plant response rating Large crabgrass” value (large crabgrass; Rate 560 g/ha) of the same compound?
**A.** 40

**Q.** What about the “Plant response rating Large crabgrass” value (large crabgrass; Rate 1120 g/ha) of the same compound?
**A.** 80

**Q.** What about the “Plant response rating Cotton” value (cotton; Rate 140 g/ha) of the same compound?
**A.** 5

**Q.** And the “Plant response rating Cotton” value (cotton; Rate 280 g/ha)?
**A.** 10

**Q.** What about the “Plant response rating Cotton” value (cotton; Rate 560 g/ha) of the same compound?
**A.** 20

**Q.** What about the “Plant response rating Cotton” value (cotton; Rate 1120 g/ha) of the same compound?
**A.** 40

**Q.** Which “Plant response rating, Sourgrass” value (sourgrass; Rate 16 g/ha, 0 no injury, 100 complete control) does the source give for C=CCn1c(=O)on(C(=O)N(c2ccc(F)cc2)C(C)C)c1=O [Compound 146] here?
**A.** 0

**Q.** What about the “Plant response rating, Sourgrass” value (sourgrass; Rate 32 g/ha, 0 no injury, 100 complete control) of the same compound?
**A.** 98

**Q.** What about the “Sourgrass plant response rating” value (sourgrass; [3]) of the same compound?
**A.** 100

**Q.** And the “Sourgrass plant response rating” value (sourgrass; [4])?
**A.** 100

**Q.** What about the “Plant response rating, Sourgrass” value (sourgrass; Rate 250 g/ha) of the same compound?
**A.** 100

**Q.** And the “Plant response rating, Sourgrass” value (sourgrass; Rate 500 g/ha)?
**A.** 100

**Q.** And the “Plant response rating, Sunflower” value (sunflower; [5])?
**A.** 20

**Q.** And the “Sunflower plant response rating (0 to 100 scale)” value (sunflower; Rate 250 g/ha)?
**A.** 30

**Q.** And the “Plant response rating, Sunflower” value (sunflower; [6])?
**A.** 30

**Q.** What about the “Plant response rating Large crabgrass” value (large crabgrass; Rate 140 g/ha) of the same compound?
**A.** 0

**Q.** And the “Plant response rating Large crabgrass” value (large crabgrass; Rate 280 g/ha)?
**A.** 60

**Q.** What about the “Plant response rating Large crabgrass” value (large crabgrass; Rate 560 g/ha) of the same compound?
**A.** 60

**Q.** And the “Plant response rating Large crabgrass” value (large crabgrass; Rate 1120 g/ha)?
**A.** 80

**Q.** And the “Plant response rating, I. Ryegrass” value (Italian ryegrass; Rate 62 g/ha)?
**A.** 50

**Q.** What about the “Plant response rating, I. Ryegrass” value (Italian ryegrass; Rate 125 g/ha) of the same compound?
**A.** 10

**Q.** And the “Plant response rating, I. Ryegrass” value (Italian ryegrass; [7])?
**A.** 50

**Q.** What about the “I. Ryegrass plant response rating” value (Italian ryegrass; [8]) of the same compound?
**A.** 10

**Q.** What about the “Plant response rating, Wild mustard” value (wild mustard; Rate 62 g/ha) of the same compound?
**A.** 60

**Q.** What about the “Plant response rating, Wild mustard” value (wild mustard; Rate 125 g/ha) of the same compound?
**A.** 50

**Q.** What about the “Plant response rating, Wild mustard” value (wild mustard; [7]) of the same compound?
**A.** 60

**Q.** And the “Wild mustard plant response rating” value (wild mustard; [8])?
**A.** 40

**Q.** What about the “Plant response rating, Jointed goatgra” value (jointed goatgrass; [5]) of the same compound?
**A.** 45

**Q.** And the “Jointed goatgra plant response rating (0 to 100 scale)” value (jointed goatgrass; Rate 250 g/ha)?
**A.** 50

**Q.** What about the “Plant response rating, Jointed goatgra” value (jointed goatgrass; [6]) of the same compound?
**A.** 50

**Q.** What about the “Plant response rating, LS canarygrass” value (littleseed canarygrass [1]; [5]) of the same compound?
**A.** 40

**Q.** And the “LS canarygrass plant response rating (0 to 100 scale)” value (littleseed canarygrass [1]; Rate 250 g/ha)?
**A.** 75

**Q.** What about the “Plant response rating, LS canarygrass” value (littleseed canarygrass [1]; [6]) of the same compound?
**A.** 85

**Q.** What about the “Plant response rating, Spring Wheat” value (spring wheat; Rate 62 g/ha) of the same compound?
**A.** 10

**Q.** And the “Plant response rating, Spring Wheat” value (spring wheat; Rate 125 g/ha)?
**A.** 10

**Q.** What about the “Plant response rating, Spring Wheat” value (spring wheat; [7]) of the same compound?
**A.** 20

**Q.** What about the “Spring Wheat plant response rating” value (spring wheat; [8]) of the same compound?
**A.** 10

**Q.** And the “Plant response rating, LS canarygrass” value (littleseed canarygrass [2]; Rate 62 g/ha)?
**A.** 30

**Q.** And the “Plant response rating, LS canarygrass” value (littleseed canarygrass [2]; Rate 125 g/ha)?
**A.** 30

**Q.** What about the “Plant response rating, LS canarygrass” value (littleseed canarygrass [2]; [7]) of the same compound?
**A.** 65

**Q.** And the “LS canarygrass plant response rating” value (littleseed canarygrass [2]; [8])?
**A.** 30

**Q.** And the “Plant response rating, Itchgrass” value (itchgrass; [3])?
**A.** 30

**Q.** And the “Plant response rating, Itchgrass” value (itchgrass; [4])?
**A.** 30

**Q.** What about the “Plant response rating, Itchgrass” value (itchgrass; Rate 250 g/ha) of the same compound?
**A.** 50

**Q.** What about the “Plant response rating, Itchgrass” value (itchgrass; Rate 500 g/ha) of the same compound?
**A.** 65

**Q.** And the “Plant response rating Cotton” value (cotton; Rate 140 g/ha)?
**A.** 40

**Q.** And the “Plant response rating Cotton” value (cotton; Rate 280 g/ha)?
**A.** 65

**Q.** What about the “Plant response rating Cotton” value (cotton; Rate 560 g/ha) of the same compound?
**A.** 65

**Q.** What about the “Plant response rating Cotton” value (cotton; Rate 1120 g/ha) of the same compound?
**A.** 70

**Q.** What about the “Plant response rating, Chickweed” value (chickweed; [5]) of the same compound?
**A.** 30

**Q.** And the “Chickweed plant response rating (0 to 100 scale)” value (chickweed; Rate 250 g/ha)?
**A.** 80

**Q.** And the “Plant response rating, Chickweed” value (chickweed; [6])?
**A.** 70

**Q.** And the “Plant response rating, Deadnettle” value (deadnettle; Rate 62 g/ha)?
**A.** 50

**Q.** What about the “Plant response rating, Deadnettle” value (deadnettle; Rate 125 g/ha) of the same compound?
**A.** 10

**Q.** What about the “Plant response rating, Deadnettle” value (deadnettle; [7]) of the same compound?
**A.** 20

**Q.** What about the “Plant response rating Ladysthumb” value (ladysthumb smartweed; Rate 140 g/ha) of the same compound?
**A.** 0

**Q.** What about the “Plant response rating Ladysthumb” value (ladysthumb smartweed; Rate 280 g/ha) of the same compound?
**A.** 10

**Q.** And the “Plant response rating Ladysthumb” value (ladysthumb smartweed; Rate 560 g/ha)?
**A.** 85

**Q.** What about the “Plant response rating, Goosegrass” value (goosegrass; [3]) of the same compound?
**A.** 0

**Q.** What about the “Plant response rating, Goosegrass” value (goosegrass; [4]) of the same compound?
**A.** 35

**Q.** And the “Plant response rating, Goosegrass” value (goosegrass; Rate 250 g/ha)?
**A.** 30

**Q.** What about the “Plant response rating, Goosegrass” value (goosegrass; Rate 500 g/ha) of the same compound?
**A.** 80

**Q.** What about the “Plant response rating, Blk nightshade” value (black nightshade; Rate 62 g/ha) of the same compound?
**A.** 50

**Q.** What about the “Plant response rating, Blk nightshade” value (black nightshade; Rate 125 g/ha) of the same compound?
**A.** 50

**Q.** And the “Plant response rating, Blk nightshade” value (black nightshade; [7])?
**A.** 70

**Q.** And the “Blk nightshade plant response rating” value (black nightshade; [8])?
**A.** 40

**Q.** Which results are given for CC(C)N(C(=O)n1oc(=O)n(C2CC2)c1=O)c1ccc(F)cc1F [Compound 299]?
**A.** Plant response rating, Itchgrass (itchgrass; [3]): 0; Plant response rating, Itchgrass (itchgrass; [4]): 10; Plant response rating, Itchgrass (itchgrass; Rate 250 g/ha): 50; Plant response rating, Itchgrass (itchgrass; Rate 500 g/ha): 100; Plant response rating, Goosegrass (goosegrass; [3]): 90; Plant response rating, Goosegrass (goosegrass; [4]): 100; Plant response rating, Goosegrass (goosegrass; Rate 250 g/ha): 100; Plant response rating, Goosegrass (goosegrass; Rate 500 g/ha): 100
